This is an account of results in patent publication US12011433B2 (UNIVERSITÁ DEGLI STUDI DI BARI “ALDO MORO”, priority 2016, dated 2024).

For one assay, the system named is p-IkBα. As to the kind of experiment: NF-kB activation (p-IkBα) in brain areas of LPS-treated mice, immunoblotting. The format is in vivo. Particulars: all tested brain areas of LPS-treated mice. The procedure: (§1) The protein concentration in the supernatant was spectrophotometrically determined by Bradford's protein assay (Bradford, 1976). […] Proteins (25 μg/lane) and prestained standards (BioRad Laboratories, Hercules, CA, USA) were loaded on 7% or 12% SDS precast polyacrylamide gels (BioRad Laboratories). After electrophoresis, the resolved proteins were transferred from the gel to nitrocellulose membranes. A blotting buffer [20 mMTris/150 mM glycine, pH=8.0, 20% (v/v) methanol] was used for gel and membrane saturation and blotting. […] Bands were visualized by chemiluminescence detection (Invitrogen, Milan, Italy). The β-actin level was used as a protein loading control. For tissue analysis, obtained bands were normalized to the level of β-actin performed for each cerebral area tested. For cell cultures the bands were normalized to the β-actin level in each experimental condition. […] VM in all the Figures) once a day for 10 days. […] On the seventh day, mice were anesthetized with tribromoethanol (250 mg/Kg, i.p.) and positioned in a stereotactic apparatus (Kopf Instruments, Tujunga, CA, USA).
(A western blot detects proteins with antibodies after separation by electrophoresis.)

The next assay concerns GFAP. As to the kind of experiment: astroglial activation in LPS-treated mice, GFAP immunoreactivity and immunoblotting. In kind it is in vivo. The procedure:
as §1, with “USA). […] Immunohistochemistry was performed following a standard avidin-biotin complex procedure. […]” for “USA).”

The target in assay [1] is COX-2 (Homo sapiens, UniProt P35354). As to the kind of experiment: colorimetric COX Inhibitor screening Assay (peroxidase component, oxidized TMPD at 590 nm). The format is biochemical. Particulars: at 50 μM, the highest concentration tested. The procedure:
Human cyclooxygenase inhibitory activity was determined by a colorimetric COX Inhibitor screening Assay which measures the peroxidase component of the cyclooxygenases, monitoring the appearance of oxidized N,N,N′,N′-tetramethyl-p-phenylenediamine (TMPD) at 590 nm.

A further assay deals with COX-1 (Mus musculus (Mouse), UniProt P22437). Briefly: COX-1 expression in brain regions of LPS-treated mice, immunoblotting. The format is in vivo. The note with it: for COX-1 expression reduction (%): LPS-treated mice, mofezolac 6 mg/kg i.p. The procedure:
Substantia nigra pars compacta (SNpc), Hippocampus, Frontal lobe and Caudate from mice brains were minced in ice-cold PBS, washed and then homogenized in a buffer containing lysis buffer (50 mM Tris pH 8, 0.02 g/mL NaCl, 0.2% SDS, 1% Triton-X, 4 U/ml aprotinin, 2 mM leupeptin, 100 mM phenylmethanesulfonyl fluoride).
(§2) The tissue and cell culture lysates were vortexed for 15-20 s and, then, centrifuged at 12,800×g for 20 min. The protein concentration in the supernatant was spectrophotometrically determined by Bradford's protein assay (Bradford, 1976). Protein samples were diluted with sample buffer (0.5 M Tris-HCl pH=6.8, 10% glycerol, 10% (w/v) SDS, 5% 2-mercaptoethanol, 0.05% (w/v) bromophenol blue) and then boiled for 3 min. Proteins (25 μg/lane) and prestained standards (BioRad Laboratories, Hercules, CA, USA) were loaded on 7% or 12% SDS precast polyacrylamide gels (BioRad Laboratories).
After electrophoresis, the resolved proteins were transferred from the gel to nitrocellulose membranes. A blotting buffer [20 mMTris/150 mM glycine, pH=8.0, 20% (v/v) methanol] was used for gel and membrane saturation and blotting. Then, membranes were incubated in the dark with 1 μg/mL mouse monoclonal antibody (MoAb) anti-COX-1 and rabbit polyclonal Ab anti-COX-2 (1:1000) (both from AbCam, Cambridge, UK), rabbit polyclonal Ab anti p-IkB-α (1:200), mouse polyclonal Ab anti β-actin (1:500) (all from Santa Cruz Biotechnology), mouse MoAb anti-glial fibrillary acidic protein (GFAP) (1:200) and mouse mAb anti-ionized calcium-binding adapter molecule-1 (Iba-1) (1:200) (both from Merck Millipore) overnight at 4° C. The membranes were washed with 0.1% Tween 20-PBS (for 20 min, 3 times) and then incubated with the secondary antibody diluted 1:2000 for 60 min. Bands were visualized by chemiluminescence detection (Invitrogen, Milan, Italy). The β-actin level was used as a protein loading control. For tissue analysis, obtained bands were normalized to the level of β-actin performed for each cerebral area tested. For cell cultures the bands were normalized to the β-actin level in each experimental condition.
On the seventh day, mice were anesthetized with tribromoethanol (250 mg/Kg, i.p.) and positioned in a stereotactic apparatus (Kopf Instruments, Tujunga, CA, USA). […] Sterotaxic injections coordinates were: 2.3 mm dorsal/ventral, 1.0 mm lateral, and 0.5 mm anterior/posterior from the bregma.

Assay [2] addresses COX-2 (Mus musculus (Mouse), UniProt Q05769). As to the kind of experiment: COX-2 expression in LPS-treated BV2 microglial cells, western blotting. The format is cell-based. The note with it: LPS-stimulated BV2 cells. The procedure:
Cells were then incubated for different times at 37° C. with LPS, as pro-inflammatory stimulus. Experiments included cells grown in medium alone (control).
as §2
After electrophoresis, the resolved proteins were transferred from the gel to nitrocellulose membranes. A blotting buffer [20 mMTris/150 mM glycine, pH=8.0, 20% (v/v) methanol] was used for gel and membrane saturation and blotting. […]

Chain of COX-2 (Homo sapiens, UniProt P35354) (P35354 18-604 limits assumed): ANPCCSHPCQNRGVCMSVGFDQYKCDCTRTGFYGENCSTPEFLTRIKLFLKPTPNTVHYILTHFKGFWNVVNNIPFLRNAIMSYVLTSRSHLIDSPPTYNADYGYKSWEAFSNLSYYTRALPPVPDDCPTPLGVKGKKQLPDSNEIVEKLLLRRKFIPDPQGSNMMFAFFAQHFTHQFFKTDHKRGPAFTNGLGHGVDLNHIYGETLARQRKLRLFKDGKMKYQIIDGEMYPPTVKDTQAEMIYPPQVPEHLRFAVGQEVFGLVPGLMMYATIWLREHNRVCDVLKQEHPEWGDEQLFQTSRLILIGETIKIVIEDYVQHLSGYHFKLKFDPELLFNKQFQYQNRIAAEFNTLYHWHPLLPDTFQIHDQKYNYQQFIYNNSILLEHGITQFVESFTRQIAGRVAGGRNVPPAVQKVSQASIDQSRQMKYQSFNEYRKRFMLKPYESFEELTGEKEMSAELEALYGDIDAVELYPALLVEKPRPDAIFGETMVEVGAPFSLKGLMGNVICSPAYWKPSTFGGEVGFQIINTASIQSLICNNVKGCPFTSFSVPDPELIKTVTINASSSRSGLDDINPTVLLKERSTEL

What is called inhibition is how much of the control response was suppressed. High values mean a response far below the control, low ones a response near the control. `COc1ccc(-c2noc(CC(=O)O)c2-c2ccc(OC)cc2)cc1` [mofezolac, 2-(3,4-bis(4-methoxyphenyl)isoxazol-5-yl)acetic acid]: the p-IkBα entry in the assay with p-IkBα was “significant reduction”. Besides, in the assay with GFAP (immunoblotting, mofezolac + LPS vs LPS alone), the GFAP levels entry is “significantly reduced”. Further, the GFAP immunoreactive cells entry in the assay with GFAP (immunohistochemistry, LPS-treated mice, mofezolac 6 mg/kg i.p., all the tested brain areas) is “reduced the presence of GFAP immunoreactive cells”. In addition, the inhibition at 50 µM against COX-2 [1] was 38%. Besides, the “COX-1 expression reduction (%)” value is on record as 95% at COX-1 (Caudate), 94% on COX-1 (Frontal lobe), 82% on COX-1 (Hippocampus) and 89% at COX-1 (Substantia nigra). Further, the COX-1 expression entry on COX-1 (LPS challenged mice, all brain areas tested) is listed as “significantly reduction of COX-1 expression”. The COX-2 protein levels result on COX-2 [2] is on record as “unaffected”.
